Assays:
[1] = test system: normotensive rats (male Wistar strain); assay: Effect on normotensive rats (hypotensive activity, mean arterial pressure after intravenous dosing); format: in vivo, rat; settings: 1.0 mg/kg intravenously
Experimental: Male Wistar strain rats aged 10-11 weeks, weighing about 250 g were used after going unfed overnight. Under ether anesthesia, polyethylene cannula were inserted in the femoral artery for measuring blood pressure and in the femoral vein for injection of the test compound. About 2 hours after the operation, test compound was given intravenously. Blood pressure was measured at the femoral artery by means of a pressure transducer and recorded as electrically integrated values of mean arterial pressure.

[2] = test system: spontaneous hypertensive rats; assay: Effect on spontaneous hypertensive rats (hypotensive activity, mean blood pressure after oral dosing); format: in vivo, rat
Experimental: 14 to 17-week-old male spontaneous hypertensive rats with mean arterial blood pressure of about 150 mmHg, weighing 300-375 g, were used. The animals were cannulated in the left femoral artery and the mean blood pressure and heart rate were measured with a pressure-transducer. The drugs were given orally. The animals were deprived of food for about 18 hours before oral dosing. The test drugs were suspended in 0.5% methylcellulose, and given in oral dose of 0.1 mg/kg and 1.0 mg/kg.

| Compound | Effect Max (maximum decrease of blood pressure, mean ratio) [1] | Effect max (maximum decrease of blood pressure, mean ratio) ([2]; 0.1 mg/kg orally) | T 1/2 (duration of half of maximum decrease of blood pressure) ([2]; 0.1 mg/kg orally) | Effect max (maximum decrease of blood pressure, mean ratio) ([2]; 1.0 mg/kg orally) | T 1/2 (duration of half of maximum decrease of blood pressure) ([2]; 1.0 mg/kg orally) |
| --- | --- | --- | --- | --- | --- |
| CN1CCN([C@@H]2c3cc(C#N)ccc3OC(C)(C)[C@H]2O)C1=NC#N (relative stereo) [trans-4-(2-Cyanoimino-3-methylimidazolidin-1-yl)-3,4-dihydro-3-hydroxy-2,2-dimethyl-2H-1-benzopyran-6-carbonitrile] | 48.0% |  |  |  |  |
| CC1(C)Oc2ccc(C#N)cc2[C@@H](N2CCSC2=NC#N)[C@@H]1O [(3S,4R)-4-(2-Cyanoiminothiazolidin-3-yl)-3,4-dihydro-3-hydroxy-2,2-dimethyl-2H-1-benzopyran-6-carbonitrile] |  | 20.7% | 2.25 h | 60.0% | 3.75 h |
